From US11963520B2, “Transgenic mouse expressing human cereblon” (Celgene Corporation, priority 2016, dated 2024)

Columns and labels:
Format in all cases: cell-based, mouse
Ikaros = assay: Ex vivo compound treatment of splenocytes, western blot of Ikaros degradation (Ikaros versus GAPDH)
Description: (§1) For example, degradation of CRBN substrate (e.g., Aiolos, Ikaros, or GSPT1) was evaluated by ex vivo compound treatment of splenocytes isolated from the human CRBN transgenic mice. Spleens from wild type (WT), heterozygous (HET), and homozygous human CRBN knock-in mice (HOM) were collected and dissociated in 5 mL PBS using gentleMACS™ Dissociator (Miltenyi Biotec, San Diego, CA). Spleen homogenates were filtered using 70 μm pre-separation filters (#130-095-823, Miltenyi Biotec) into 15-mL conical tubes and centrifuged at 1200 rpm for 5 min. After decanting, splenocytes were re-suspended in 1 mL of ACK Lysing Buffer (Gibco #A10492-01, Thermo Fisher Scientific, Waltham, MA) for 2 min. to lyse red blood cells. Ten mL of cold PBS was added to each conical tube to stop lysis, and splenocytes were again centrifuged at 1200 rpm for 5 min. After decanting, splenocytes were re-suspended in 1 mL PBS, filtered again, and pooled for each mouse phenotype to count and determine viability using Vi-Cell™ XR cell counter (Beckman Coulter, Indianapolis, IN). After counting and viability check, tubes with pooled splenocytes were centrifuged at 1200 rpm for 5 min., decanted, and resuspended in warm RPMI 1640 media supplemented with 10% FBS at a concentration of 5.5×10^6 splenocytes/mL (20-30 mL depending on number of splenocytes).
(§2) 15×10^6 WT, HET, or HOM splenocytes were plated in wells of separate 6-well plates. Compounds diluted in DMSO (final concentration 0.2%)/RPMI 1640 media were dispensed into wells at concentrations ranging from 10 μM to 1 nM. 0.2% DMSO was also dispensed in one well of each plate as a negative control. Splenocytes were treated with compounds from 4 to 24 hrs in incubators at 37° C. Compound-treated splenocytes were then collected in 15 mL conical tubes, centrifuged at 1500 rpm for 6 mins, media aspirated off, and washed once with 5 mL PBS. After washing, splenocytes were again centrifuged, PBS was aspirated off, and splenocyte pellets were flash frozen on dry ice.
(§3) Splenocyte pellets were lysed using cold 1× cell lysis buffer (#9803, Cell Signaling Technology, Danvers, MA), supplemented with cOmplete ULTRA protease inhibitor tablet (#05892920001, Roche Diagnostics Corporation, Indianapolis, IN) and phosphatase inhibitors (Pierce #78442, Thermo Fisher Scientific, Waltham, MA). Protein concentration of lysates was determined using BCA Protein Assay Kit (Pierce #A10492-01, Thermo Fisher Scientific, Waltham, MA) and western blots were run to evaluate substrate degradation resulting from ex vivo compound treatment. Twenty microgram of each splenoctye lysate was loaded onto 4-12% Criterion XT Bis Tris gels (Bio-Rad #3450124, Bio-Rad Laboratories, Hercules, CA) and run at 130 V for 1.5 hr and then transferred onto nitrocellulose membranes using Trans-Blot Turbo Transfer System (Bio-Rad Laboratories). After 1 hr of blocking in Odyssey® Blocking buffer (#927-40100, LI-COR Biotechnology, Lincoln, NE), membranes were incubated with primary antibodies for Aiolos (polyclonal goat, #sc-18683, Santa Cruz Biotechnology, Dallas, TX), Ikaros (monoclonal rabbit, #14859, Cell Signaling Technology), GSPT-1 (polyclonal rabbit, #ab49878, Abcam PLC, Cambridge, United Kingdom), GAPDH (monoclonal mouse, #AM4300, Thermo Fisher Scientific) overnight at 4° C. After washing in PBST, membranes were probed with a fluorescent secondary antibody, Alexa Fluor 680® goat anti-rabbit IgG (Invitrogen #A-21076, Thermo Fisher Scientific) or IRDye® 800CW goat anti-mouse IgG (#926-32210, LI-COR Biotechnology), for 1 hr at room temperature. Following incubation with secondary antibodies, membranes were again washed in PBST. Membranes were scanned using Odyssey® CLx Imaging System (LI-COR Biotechnology) and quantified using Image Studio™ software.
(§4) A second ex vivo experiment using splenocytes from WT, HET, and HOM mice was conducted to study the dose dependency of Aiolos or Ikaros degradation in response to a range of Compound B concentrations. […]

Aiolos = assay: Ex vivo compound treatment of splenocytes, western blot of Aiolos degradation (Aiolos versus GAPDH)
Description: as §1, §2, §3, §4

GSPT1 = assay: Ex vivo compound treatment of splenocytes, western blot of GSPT1 degradation (GSPT1 versus GAPDH); conditions: 4 hr ex vivo
Description: as §1, §2
as §3, with “software. […]” for “software.”

[1] = HET and HOM splenocytes, 1 μM or 10 μM, 24 hrs ex vivo
[2] = HET splenocytes, 0.001 μM, 6 hr ex vivo
[3] = HET splenocytes, 0.01 μM, 6 hr ex vivo
[4] = HET splenocytes, 0.1 μM, 6 hr ex vivo
[5] = HET splenocytes, 1 μM, 6 hr ex vivo
[6] = HET splenocytes, 1 μM, 24 hr ex vivo
[7] = HOM splenocytes, 0.001 μM, 6 hr ex vivo
[8] = HOM splenocytes, 0.01 μM, 6 hr ex vivo
[9] = HOM splenocytes, 0.1 μM, 6 hr ex vivo
[10] = HOM splenocytes, 1 μM, 6 hr ex vivo
[11] = HOM splenocytes, 1 μM, 24 hr ex vivo
[12] = WT splenocytes, 1 μM or 10 μM, 24 hrs ex vivo
[13] = WT splenocytes, 1 μM, 24 hr ex vivo
[14] = WT splenocytes, 10 μM, 24 hr ex vivo
[15] = WT splenocytes, any concentration (1, 0.1, 0.01, 0.001 μM), 6 hr ex vivo

SMILES: O=C1CC[C@H](N2Cc3c(OCc4ccc(CN5CCOCC5)cc4)cccc3C2=O)C(=O)N1 (stereo in doubt) [Compound B, 3-(4-((4-(morpholinomethyl)benzyl)oxy)-1-oxoisoindolin-2-yl)piperidine-2,6-dione]
- degradation of Ikaros (in words) (Ikaros; [1]): significant degradation
- degradation of Ikaros (Ikaros; [2]): 0%
- degradation of Ikaros (Ikaros; [3]): 8%
- degradation of Ikaros (Ikaros; [4]): 45%
- degradation of Ikaros (Ikaros; [5]): 49%
- degradation of Ikaros (Ikaros; [6]): 60%
- degradation of Ikaros (Ikaros; HET splenocytes, 10 μM, 24 hr ex vivo): 68%
- degradation of Ikaros (Ikaros; [7]): 14%
- degradation of Ikaros (Ikaros; [8]): 41%
- degradation of Ikaros (Ikaros; [9]): 55%
- degradation of Ikaros (Ikaros; [10]): 59%
- degradation of Ikaros (Ikaros; [11]): 76%
- degradation of Ikaros (Ikaros; HOM splenocytes, 10 μM, 24 hr ex vivo): 82%
- degradation of Ikaros (in words) (Ikaros; [12]): only minimal degradation
- degradation of Ikaros (Ikaros; [13]): 23%
- degradation of Ikaros (Ikaros; [14]): 20%
- degradation of Ikaros (in words) (Ikaros; [15]): no degradation
- degradation of Aiolos (Aiolos; HET (heterozygous human CRBN knock-in) splenocytes, 10 μM, 24 hr ex vivo): 77%
- degradation of Aiolos (in words) (Aiolos; [1]): significant degradation
- degradation of Aiolos (Aiolos; [2]): 0%
- degradation of Aiolos (Aiolos; [3]): 13%
- degradation of Aiolos (Aiolos; [4]): 32%
- degradation of Aiolos (Aiolos; [5]): 41%
- degradation of Aiolos (Aiolos; [6]): 76%
- degradation of Aiolos (Aiolos; HOM (homozygous human CRBN knock-in) splenocytes, 10 μM, 24 hr ex vivo): 84%
- degradation of Aiolos (Aiolos; [7]): 28%
- degradation of Aiolos (Aiolos; [8]): 54%
- degradation of Aiolos (Aiolos; [9]): 66%
- degradation of Aiolos (Aiolos; [10]): 78%
- degradation of Aiolos (Aiolos; [11]): 81%
- degradation of Aiolos (in words) (Aiolos; [12]): only minimal degradation
- degradation of Aiolos (Aiolos; [13]): 28%
- degradation of Aiolos (Aiolos; [14]): 27%
- degradation of Aiolos (in words) (Aiolos; [15]): no degradation

SMILES: Cc1ccc(NC(=O)NCc2ccc3c(c2)CN(C2CCC(=O)NC2=O)C3=O)cc1Cl (stereo not drawn) [Compound C, 1-(3-chloro-4-methylphenyl)-3-((2-(2,6-dioxopiperidin-3-yl)-1-oxoisoindolin-5-yl)methyl)urea]
- degradation of GSPT1 (GSPT1; HOM splenocytes, 1 nM): 65%
- degradation of GSPT1 (GSPT1; HOM splenocytes, 100 nM): 89%
- degradation of GSPT1 (in words) (GSPT1; HOM splenocytes): significant degradation
- degradation of GSPT1 (GSPT1; WT splenocytes, 1 nM): 11%
- degradation of GSPT1 (GSPT1; WT splenocytes, 100 nM): 7%
- degradation of GSPT1 (in words) (GSPT1; WT splenocytes): only minimal degradation

SMILES: O=C1CCC(N2Cc3cc(CNC(=O)C(F)(F)c4ccc(F)cc4)ccc3C2=O)C(=O)N1 (stereo not drawn) [Compound E, 2-(4-flurophenyl)-N-((2-(2,6-dioxopiperidin-3-yl)-1-oxoisoindolin-5-yl)methyl)-2,2-difluoroacetamide]
- degradation of GSPT1 (GSPT1; HOM splenocytes, 100 nM): 70%
- degradation of GSPT1 (GSPT1; HOM splenocytes, 10 μM): 74%
- degradation of GSPT1 (in words) (GSPT1; HOM splenocytes): significant degradation
- degradation of GSPT1 (GSPT1; WT splenocytes, 100 nM): 0%
- degradation of GSPT1 (GSPT1; WT splenocytes, 10 μM): 6%
